Structures can show the parent of a compound that is named as a salt.

Assay [1] has as its target PI3Kγ (p110γ) Recombinant Human Protein (Homo sapiens (Human), UniProt P48736). As to the kind of experiment: PI3K-γ Scintillation Proximity Assay. It counts as biochemical. As to conditions: read-out: PI3K-gamma SPA IC50. The text has this: Example B. PI3K-γ Scintillation Proximity Assay
[γ-^33P]ATP (10 mCi/mL) and Wheat Germ Agglutinin (WGA) YSi SPA Scintillation Beads was purchased from Perkin-Elmer (Waltham, Mass.). Lipid kinase substrate, D-myo-Phosphatidylinositol 4,5-bisphosphate (PtdIns(4,5)P2)D (+)-sn-1,2-di-O-octanoylglyceryl, 3-O-phospho linked (PIP2), CAS 204858-53-7, was purchased from Echelon Biosciences (Salt Lake City, Utah). PI3Kγ (p110γ) Recombinant Human Protein was purchased from Life technology (Grand Island, N.Y.). ATP, MgCl2, DTT, EDTA, MOPS and CHAPS were purchased from Sigma-Aldrich (St. Louis, Mo.).
(§1) The kinase reaction was conducted in polystyrene 384-well Greiner Bio-one white plate from Thermo Fisher Scientific in a final volume of 25 μL. Inhibitors were first diluted serially in DMSO and added to the plate wells before the addition of other reaction components. The final concentration of DMSO in the assay was 2%. The PI3Kγ assay was carried out at room temperature in 20 mM MOPS, pH 6.7, 10 mM MgCl2, 5 mM DTT and CHAPS 0.03%. Reactions were initiated by the addition of ATP, the final reaction mixture consisted of 20 μM PIP2, 2 μM ATP, 0.5 μCi [γ-^33P] ATP, 13 nM PI3Kγ. Reactions were incubated for 120 min and terminated by the addition of 40 μL SPA beads suspended in quench buffer: 163 mM potassium phosphate pH 7.8, 20% glycerol, 25 mM EDTA. The final concentration of SPA beads is 1.0 mg/mL. After the plate sealing, plates were shaken overnight at room temperature and centrifuged at 1500 rpm for 10 min, the radioactivity of the product was determined by scintillation counting on Topcount (Perkin-Elmer). IC50 determination was performed by fitting the curve of percent of the solvent control activity versus the log of the inhibitor concentration using the GraphPad Prism 6.0 software.
For orientation: In a scintillation proximity assay essentially only radioactivity close to the scintillant gives light.

The target of assay [2] is PI3Kδ (p110δ/p85α) Recombinant Human Protein (Homo sapiens (Human), UniProt O00329). As to the kind of experiment: PI3Kδ Scintillation Proximity Assay. It counts as biochemical. The following applies: read-out: PI3K-delta SPA IC50.
Sequence of PI3Kδ (p110δ/p85α) Recombinant Human Protein (O00329 whole entry): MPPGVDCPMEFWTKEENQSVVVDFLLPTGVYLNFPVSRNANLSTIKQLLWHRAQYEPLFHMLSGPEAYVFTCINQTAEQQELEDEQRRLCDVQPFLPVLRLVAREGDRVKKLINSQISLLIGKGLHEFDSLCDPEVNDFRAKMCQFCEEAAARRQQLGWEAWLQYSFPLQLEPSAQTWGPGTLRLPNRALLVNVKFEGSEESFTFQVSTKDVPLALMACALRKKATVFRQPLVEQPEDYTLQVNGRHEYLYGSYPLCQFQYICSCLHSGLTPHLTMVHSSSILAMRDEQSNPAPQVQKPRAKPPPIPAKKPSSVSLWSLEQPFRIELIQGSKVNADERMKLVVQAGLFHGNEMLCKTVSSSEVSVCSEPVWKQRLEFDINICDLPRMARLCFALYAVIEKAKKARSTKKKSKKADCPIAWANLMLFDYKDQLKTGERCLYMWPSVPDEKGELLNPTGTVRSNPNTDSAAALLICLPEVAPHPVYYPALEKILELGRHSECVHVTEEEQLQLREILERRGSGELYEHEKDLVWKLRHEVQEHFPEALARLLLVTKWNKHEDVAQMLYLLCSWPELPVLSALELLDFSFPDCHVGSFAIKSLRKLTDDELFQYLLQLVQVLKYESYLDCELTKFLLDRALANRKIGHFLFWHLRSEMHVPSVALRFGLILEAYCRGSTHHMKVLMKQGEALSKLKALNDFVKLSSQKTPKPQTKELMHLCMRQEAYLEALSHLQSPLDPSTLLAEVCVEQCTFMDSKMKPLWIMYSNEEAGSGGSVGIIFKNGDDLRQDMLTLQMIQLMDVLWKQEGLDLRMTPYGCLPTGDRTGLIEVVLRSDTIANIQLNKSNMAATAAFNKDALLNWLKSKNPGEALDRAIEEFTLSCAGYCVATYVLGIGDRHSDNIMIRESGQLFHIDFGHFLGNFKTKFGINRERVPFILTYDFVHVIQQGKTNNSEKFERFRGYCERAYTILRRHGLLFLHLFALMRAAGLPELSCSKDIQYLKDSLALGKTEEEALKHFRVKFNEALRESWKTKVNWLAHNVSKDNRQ
Sequence of PI3Kδ (p110δ/p85α) Recombinant Human Protein (P27986 whole entry partner): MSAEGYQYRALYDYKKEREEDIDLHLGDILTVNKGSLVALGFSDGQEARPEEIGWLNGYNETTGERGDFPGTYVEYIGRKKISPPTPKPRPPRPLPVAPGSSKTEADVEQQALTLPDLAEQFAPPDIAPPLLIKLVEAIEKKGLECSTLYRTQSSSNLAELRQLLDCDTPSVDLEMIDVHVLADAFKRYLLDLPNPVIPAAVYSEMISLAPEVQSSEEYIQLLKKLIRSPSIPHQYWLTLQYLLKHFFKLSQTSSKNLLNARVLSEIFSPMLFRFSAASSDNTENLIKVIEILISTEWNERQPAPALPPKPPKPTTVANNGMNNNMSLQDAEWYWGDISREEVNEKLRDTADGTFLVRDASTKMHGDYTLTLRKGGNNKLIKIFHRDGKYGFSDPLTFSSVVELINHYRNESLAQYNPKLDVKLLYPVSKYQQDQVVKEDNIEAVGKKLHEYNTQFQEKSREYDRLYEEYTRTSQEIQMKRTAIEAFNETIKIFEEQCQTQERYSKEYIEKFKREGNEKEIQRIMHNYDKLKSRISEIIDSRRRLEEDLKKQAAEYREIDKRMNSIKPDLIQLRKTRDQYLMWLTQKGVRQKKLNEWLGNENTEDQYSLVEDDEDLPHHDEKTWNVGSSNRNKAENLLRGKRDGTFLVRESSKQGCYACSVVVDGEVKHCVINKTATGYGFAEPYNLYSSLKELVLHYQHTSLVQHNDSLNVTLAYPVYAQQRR
Excerpt: Example C. PI3Kδ Scintillation Proximity Assay
[γ-^33P]ATP (10 mCi/mL) and Wheat Germ Agglutinin (WGA) YSi SPA Scintillation Beads was purchased from Perkin-Elmer (Waltham, Mass.). Lipid kinase substrate, D-myo-Phosphatidylinositol 4,5-bisphosphate (PtdIns(4,5)P2)D (+)-sn-1,2-di-O-octanoylglyceryl, 3-O-phospho linked (PIP2), CAS 204858-53-7, was purchased from Echelon Biosciences (Salt Lake City, Utah). PI3Kδ (p110δ/p85α) Recombinant Human Protein was purchased from Eurofins (St Charles, Mo.). ATP, MgCl2, DTT, EDTA, MOPS and CHAPS were purchased from Sigma-Aldrich (St. Louis, Mo.).
as §1, with “PI3Kδ” for “PI3Kγ”, “3.4” for “13”, “PI3Kδ.” for “PI3Kγ.”

Sequence of PI3Kγ (p110γ) Recombinant Human Protein (P48736 whole entry): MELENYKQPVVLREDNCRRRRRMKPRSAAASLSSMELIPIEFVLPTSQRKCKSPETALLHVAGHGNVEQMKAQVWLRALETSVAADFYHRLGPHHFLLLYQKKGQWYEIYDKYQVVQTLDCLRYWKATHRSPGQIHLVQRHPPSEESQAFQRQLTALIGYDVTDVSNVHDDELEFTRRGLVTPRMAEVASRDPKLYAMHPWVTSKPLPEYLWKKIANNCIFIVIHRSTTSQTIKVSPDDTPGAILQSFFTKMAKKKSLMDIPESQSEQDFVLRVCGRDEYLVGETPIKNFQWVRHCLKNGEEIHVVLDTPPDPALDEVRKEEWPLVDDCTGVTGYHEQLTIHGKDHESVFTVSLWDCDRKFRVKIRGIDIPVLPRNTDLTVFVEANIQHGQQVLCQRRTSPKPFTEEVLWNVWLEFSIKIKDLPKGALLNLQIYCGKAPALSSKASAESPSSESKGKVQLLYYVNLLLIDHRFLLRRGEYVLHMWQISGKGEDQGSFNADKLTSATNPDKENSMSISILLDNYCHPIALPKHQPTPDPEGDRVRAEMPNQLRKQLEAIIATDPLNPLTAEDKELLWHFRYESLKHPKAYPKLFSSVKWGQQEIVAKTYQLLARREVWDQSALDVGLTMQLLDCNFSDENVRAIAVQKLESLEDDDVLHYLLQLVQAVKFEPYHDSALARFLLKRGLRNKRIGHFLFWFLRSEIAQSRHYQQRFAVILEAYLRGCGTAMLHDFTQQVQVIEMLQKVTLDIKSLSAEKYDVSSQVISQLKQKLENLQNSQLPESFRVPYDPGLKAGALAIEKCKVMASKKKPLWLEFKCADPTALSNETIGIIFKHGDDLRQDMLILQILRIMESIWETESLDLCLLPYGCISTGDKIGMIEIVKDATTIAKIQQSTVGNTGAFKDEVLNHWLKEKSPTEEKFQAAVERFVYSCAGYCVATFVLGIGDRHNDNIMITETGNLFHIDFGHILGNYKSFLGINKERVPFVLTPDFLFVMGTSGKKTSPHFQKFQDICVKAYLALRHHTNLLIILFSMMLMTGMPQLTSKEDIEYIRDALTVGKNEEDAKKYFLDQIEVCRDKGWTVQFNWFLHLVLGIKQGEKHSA

“4-(1-Methyl-3-(trifluoromethyl)-1H-pyrazol-5-yl)-2-(5-phenyl-1H-imidazol-2-yl)pyridine trifluoroacetate salt [Example 13]”: the IC50 in assay [1] and in assay [2] was > 500 nM each time.
`c1ccc(-c2cnc(-c3cc(-c4cnn(C5CCOC5)c4)ccn3)[nH]2)cc1` (racemic) [Example 60, 2-(5-Phenyl-1H-imidazol-2-yl)-4-(1-(tetrahydrofuran-3-yl)-1H-pyrazol-4-yl)pyridine trifluoroacetate salt]: the IC50 in assay [1] and in assay [2] was ≤ 500 nM in each case.
As to `Cc1[nH]c(-c2cc(-c3cncc(N4CCOCC4)c3)ccn2)nc1C(C)O` (racemic) [Example 124, 1-[5-Methyl-2-(5-morpholin-4-yl-3,4′-bipyridin-2′-yl)-1H-imidazol-4-yl]ethanol], the IC50 in assay [1] and in assay [2] was ≤ 500 nM throughout.
As to `Cc1nc(-c2cc(-c3cncc(C(=O)NCC4CCCO4)c3)ccn2)[nH]c1C` (racemic) [Example 167, 2′-(4,5-Dimethyl-1H-imidazol-2-yl)-N-((tetrahydrofuran-2-yl)methyl)-3,4′-bipyridine-5-carboxamide trifluoroacetate salt], the IC50 in assay [1] was ≤ 100 nM; in assay [2] it was ≤ 500 nM.
Consider `Cc1nc(-c2cc(-c3cncc(C(=O)N4CCC(c5ccccn5)C4)c3)ccn2)[nH]c1C` (racemic) [Example 170, (2′-(4,5-Dimethyl-1H-imidazol-2-yl)-3,4′-bipyridin-5-yl)(3-(pyridin-2-yl)pyrrolidin-1-yl)methanone trifluoroacetate salt], for which the IC50 in assay [1] is ≤ 100 nM; in assay [2] it was ≤ 50 nM.
For `Cc1nc(-c2cc(-c3cncc(C(=O)N4CCC(c5ccccc5)C4)c3)ccn2)[nH]c1C` (racemic) [Example 181, 2′-(4,5-Dimethyl-1H-imidazol-2-yl)-5-[(3-phenylpyrrolidin-1-yl)carbonyl]-3,4′-bipyridine trifluoroacetate salt] the same measures were ≤ 100 nM and ≤ 50 nM.
Consider `Cc1nc(-c2cc(-c3cncc(C(=O)N4CCC(c5ccncc5)C4)c3)ccn2)[nH]c1C` (racemic) [Example 182, 2′-(4,5-Dimethyl-1H-imidazol-2-yl)-5-[(3-pyridin-4-ylpyrrolidin-1-yl)carbonyl]-3,4′-bipyridine], for which the IC50 in assay [1] and in assay [2] was ≤ 500 nM in each case.
Take `Cc1nc(-c2cc(-c3cncc(C(=O)N4CCCC(c5ccccc5)C4)c3)ccn2)[nH]c1C` (racemic) [Example 188, 2′-(4,5-Dimethyl-1H-imidazol-2-yl)-5-[(3-phenylpiperidin-1-yl)carbonyl]-3,4′-bipyridine trifluoroacetate salt]: the IC50 in assay [1] and in assay [2] was ≤ 500 nM throughout.
In the case of `Cc1nc(-c2cc(C3CCCN(S(=O)(=O)c4ccccc4)C3)ccn2)[nH]c1C` (racemic) [Example 215, 2-(4,5-Dimethyl-1H-imidazol-2-yl)-4-[1-(phenylsulfonyl)piperidin-3-yl]pyridine Trifluoroacetate Salt], the results for the IC50 in assay [1] and in assay [2] were ≤ 500 nM and > 500 nM, respectively.
Consider `Cc1[nH]c(-c2cc(-c3cncc(N4CCOCC4)c3)ccn2)nc1C(=O)N(C)C1CCOC1` (racemic) [Example 261, N,5-Dimethyl-2-(5-morpholin-4-yl-3,4′-bipyridin-2′-yl)-N-(tetrahydrofuran-3-yl)-1H-imidazole-4-carboxamide], for which the IC50 in assay [1] and in assay [2] was ≤ 500 nM each time.
Consider `Clc1ccc(Cn2cc(-c3ccnc(-c4nc(C5CCNC5)c[nH]4)c3)cn2)cc1` (racemic) [Example 306, 4-[1-(4-Chlorobenzyl)-1H-pyrazol-4-yl]-2-(4-pyrrolidin-3-yl-1H-imidazol-2-yl)pyridine Trifluoroacetate Salt], for which the IC50 in assay [1] and in assay [2] was > 500 nM in each case.
Regarding `CS(=O)(=O)N1CCC(c2c[nH]c(-c3cc(-c4cnn(Cc5ccc(Cl)cc5)c4)ccn3)n2)C1` (single isomer, unassigned) [Example 304, 4-[1-(4-Chlorobenzyl)-1H-pyrazol-4-yl]-2-{4-[1-(methylsulfonyl)pyrrolidin-3-yl]-1H-imidazol-2-yl}pyridine trifluoroacetate salt], the IC50 in assay [1] was ≤ 100 nM; in assay [2] it was ≤ 500 nM.
As to `Cn1cc(-c2ccnc(-c3ncc(-c4ccccc4)[nH]3)c2)cn1` [Example 8, 4-(1-Methyl-1H-pyrazol-4-yl)-2-(5-phenyl-1H-imidazol-2-yl)pyridine trifluoroacetate salt], the IC50 in assay [1] and in assay [2] was ≤ 500 nM in each case.
Turning to `Cc1n[nH]c(C)c1-c1ccnc(-c2ncc(-c3ccccc3)[nH]2)c1` [Example 11, 4-(3,5-Dimethyl-1H-pyrazol-4-yl)-2-(5-phenyl-1H-imidazol-2-yl)pyridine trifluoroacetate salt], the IC50 in assay [1] and in assay [2] was > 500 nM throughout.
Turning to `CCCn1cc(-c2ccnc(-c3ncc(-c4ccccc4)[nH]3)c2)cn1` [Example 12, 2-(5-Phenyl-1H-imidazol-2-yl)-4-(1-propyl-1H-pyrazol-4-yl)pyridine trifluoroacetate salt], the IC50 in assay [1] and in assay [2] was ≤ 500 nM throughout.
For `Cn1nc(C(F)(F)F)cc1-c1ccnc(-c2ncc(-c3ccccc3)[nH]2)c1` [Example 14, 4-(1-Methyl-3-(trifluoromethyl)-1H-pyrazol-5-yl)-2-(5-phenyl-1H-imidazol-2-yl)pyridine trifluoroacetate salt], the IC50 in assay [1] and in assay [2] was > 500 nM in each case.
As to `Cn1ccnc1-c1ccnc(-c2ncc(-c3ccccc3)[nH]2)c1` [Example 16, 4-(1-Methyl-1H-imidazol-2-yl)-2-(5-phenyl-1H-imidazol-2-yl)pyridine trifluoroacetate salt], the IC50 in assay [1] and in assay [2] was > 500 nM throughout.
As for `N#Cc1cccc(Cn2cc(-c3ccnc(-c4ncc(-c5ccccc5)[nH]4)c3)cn2)c1` [Example 20, 3-((4-(2-(5-Phenyl-1H-imidazol-2-yl)pyridin-4-yl)-1H-pyrazol-1-yl)methyl)benzonitrile trifluoroacetate salt], the IC50 in assay [1] is ≤ 500 nM; in assay [2], > 500 nM.
Consider `Clc1cccc(Cn2cc(-c3ccnc(-c4ncc(-c5ccccc5)[nH]4)c3)cn2)c1` [Example 21, 4-(1-(3-Chlorobenzyl)-1H-pyrazol-4-yl)-2-(5-phenyl-1H-imidazol-2-yl)pyridine trifluoroacetate salt], for which the IC50 was ≤ 500 nM in assay [1] and > 500 nM in assay [2].
In the same order, the values of `c1ccc(-c2cnc(-c3cc(-c4cnn(C5CCNCC5)c4)ccn3)[nH]2)cc1` [Example 25, 2-(5-Phenyl-1H-imidazol-2-yl)-4-(1-(piperidin-4-yl)-1H-pyrazol-4-yl)pyridine trifluoroacetate salt] are > 500 nM and > 500 nM.
Consider `c1ccc(-c2cnc(-c3cc(-c4cnn(CCN5CCOCC5)c4)ccn3)[nH]2)cc1` [Example 26, 4-(2-(4-(2-(5-Phenyl-1H-imidazol-2-yl)pyridin-4-yl)-1H-pyrazol-1-yl)ethyl)morpholine trifluoroacetate salt], for which the IC50 in assay [1] and in assay [2] was > 500 nM throughout.
